Values of other authors, collected in patent US9622967B2, “Highly stable compositions of orally active nucleotide analogues or orally active nucleotide analogue prodrugs” (Sigmapharm Laboratories, LLC, priority 2010, dated 2017).
Where a name gives a salt, the structure may show the parent alone.

CC(C)OC(=O)OCOP(=O)(CO[C@H](C)Cn1cnc2c(N)ncnc21)OCOC(=O)OC(C)C [tenofovir disoproxil fumarate]
monoester mono(POC)-PMPA formed, weight percentage (3 days at 60° C. and 75% RH): 3.1% | monoester mono(POC)PMPA already formed soon after production (soon after production): up to 1.0 % w/w
